Legend:
Parameters in all cases: scale not given here
[1] = test system: CHEAL Lambsquarters, Common; experiment: Postemergence herbicidal evaluation, CHEAL; format: in vivo, Chenopodium album, L.; details: postemergence spray, rated about two-three weeks after treatment
Procedure, shortened: (§1)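 Plants are raised for roughly two weeks, then treated postemergence with compound dispersed in acetone/water (80/20) plus 1.0% seed oil adjuvant, at rates of about 0.006 kg to 0.400 kg per hectare. After greenhouse care, damage is scored two to three weeks later.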

AMBEL Ragweed, Common [2] = experiment: Postemergence herbicidal evaluation, AMBEL; format: in vivo, Ambrosia artemisifolia, L.; details: postemergence spray, rated about two-three weeks after treatment
Procedure, shortened: as §1

[3] = test system: IPOHE Morningglory, Ivyleaf; experiment: Postemergence herbicidal evaluation, IPOHE; format: in vivo, Ipomoea hederacea, (L.) Jacq.; details: postemergence spray, rated about two-three weeks after treatment
Procedure, shortened: as §1

ORYSAT Rice, Tebonnet [4] = experiment: Preemergence herbicidal evaluation, ORYSAT; format: in vivo, Oryza sativa, (L.); details: preemergence
Procedure, shortened: (§2)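 Seeds mixed with potting soil in cups, then sprayed preemergence with aqueous acetone test solution at about 0.013 to 0.800 kg per hectare equivalent. Cups kept under standard greenhouse care; plants rated on a visual scale four to five weeks after treatment.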

SETVI Foxtail, Green [5] = experiment: Postemergence herbicidal evaluation, SETVI; format: in vivo, Setaria viridis, (L.) Beau; details: postemergence spray, rated about two-three weeks after treatment
Procedure, shortened: as §1

ZEAMX Corn, Field [6] = experiment: Preemergence herbicidal evaluation, ZEAMX; format: in vivo, Zea mays, L. (Sammel-Bezeichnung); details: preemergence
Procedure, shortened: as §2

ZEAMX Corn, Field [7] = experiment: Postemergence herbicidal evaluation, ZEAMX; format: in vivo, Zea mays, L. (Sammel-Bezeichnung); details: postemergence spray, rated about two-three weeks after treatment
Procedure, shortened: as §1

GALAP Galium [8] = experiment: Postemergence herbicidal evaluation, GALAP; format: in vivo, Galium aparine; details: postemergence spray, rated about two-three weeks after treatment
Procedure, shortened: as §1

ABUTH Velvetleaf [9] = experiment: Postemergence herbicidal evaluation, ABUTH; format: in vivo, Abutilon theophrasti, Medic.; details: postemergence spray, rated about two-three weeks after treatment
Procedure, shortened: as §1

AMBEL Ragweed, Common [10] = experiment: Preemergence herbicidal evaluation, AMBEL; format: in vivo, Ambrosia artemisifolia, L.; details: preemergence
Procedure, shortened: as §2

[11] = test system: TRZAWR Wheat, Winter, cv Riband; experiment: Postemergence herbicidal evaluation, TRZAWR; format: in vivo, Triticum aestivum; details: postemergence spray, rated about two-three weeks after treatment
Procedure, shortened: as §1

CASOB Sicklepod [12] = experiment: Preemergence herbicidal evaluation, CASOB; format: in vivo, Cassia obtusifolia, L.; details: preemergence
Procedure, shortened: as §2

[13] = test system: IPOHE Morningglory, Ivyleaf; experiment: Preemergence herbicidal evaluation, IPOHE; format: in vivo, Ipomoea hederacea, (L.) Jacq.; details: preemergence
Procedure, shortened: as §2

ABUTH Velvetleaf [14] = experiment: Preemergence herbicidal evaluation, ABUTH; format: in vivo, Abutilon theophrasti, Medic.; details: preemergence
Procedure, shortened: as §2

GALAP Galium [15] = experiment: Preemergence herbicidal evaluation, GALAP; format: in vivo, Galium aparine; details: preemergence
Procedure, shortened: as §2

ECHOG Barnyardgrass [16] = experiment: Preemergence herbicidal evaluation, ECHOG; format: in vivo, Echinochloa crus-galli, (L.) Beau; details: preemergence
Procedure, shortened: as §2

CASOB Sicklepod [17] = experiment: Postemergence herbicidal evaluation, CASOB; format: in vivo, Cassia obtusifolia, L.; details: postemergence spray, rated about two-three weeks after treatment
Procedure, shortened: as §1

ECHOG Barnyardgrass [18] = experiment: Postemergence herbicidal evaluation, ECHOG; format: in vivo, Echinochloa crus-galli, (L.) Beau; details: postemergence spray, rated about two-three weeks after treatment
Procedure, shortened: as §1

GLXMAW Soybean, Williams [19] = experiment: Postemergence herbicidal evaluation, GLXMAW; format: in vivo, Glycine max, (L.) Merr. cv Williams; details: postemergence spray, rated about two-three weeks after treatment
Procedure, shortened: as §1

[20] = test system: CHEAL Lambsquarters, Common; experiment: Preemergence herbicidal evaluation, CHEAL; format: in vivo, Chenopodium album, L.; details: preemergence
Procedure, shortened: as §2

GLXMAW Soybean, Williams [21] = experiment: Preemergence herbicidal evaluation, GLXMAW; format: in vivo, Glycine max, (L.) Merr. cv Williams; details: preemergence
Procedure, shortened: as §2

ORYSAT Rice, Tebonnet [22] = experiment: Postemergence herbicidal evaluation, ORYSAT; format: in vivo, Oryza sativa, (L.); details: postemergence spray, rated about two-three weeks after treatment
Procedure, shortened: as §1

[23] = test system: TRZAWR Wheat, Winter, cv Riband; experiment: Preemergence herbicidal evaluation, TRZAWR; format: in vivo, Triticum aestivum; details: preemergence
Procedure, shortened: as §2

SETVI Foxtail, Green [24] = experiment: Preemergence herbicidal evaluation, SETVI; format: in vivo, Setaria viridis, (L.) Beau; details: preemergence
Procedure, shortened: as §2

CCc1ccccc1-n1nnc2cc(F)c(-n3c(=O)cc(C(F)(F)F)n(C)c3=O)cc21 [Example 25]
0.0: Postemergence herbicidal rating AMBEL (AMBEL Ragweed, Common [2]; 0.008 kg/ha) | Postemergence herbicidal rating AMBEL (AMBEL Ragweed, Common [2]; 0.016 kg/ha) | ORYSAT herbicidal rating (ORYSAT Rice, Tebonnet [4]; rate 0.016 kg/ha) | ORYSAT herbicidal rating (ORYSAT Rice, Tebonnet [4]; rate 0.032 kg/ha) | ORYSAT herbicidal rating (ORYSAT Rice, Tebonnet [4]; rate 0.062 kg/ha) | Postemergence herbicidal rating SETVI (SETVI Foxtail, Green [5]; 0.008 kg/ha) | Postemergence herbicidal rating SETVI (SETVI Foxtail, Green [5]; 0.016 kg/ha) | ZEAMX herbicidal rating (ZEAMX Corn, Field [6]; rate 0.016 kg/ha) | ZEAMX herbicidal rating (ZEAMX Corn, Field [6]; rate 0.032 kg/ha) | Postemergence herbicidal rating GALAP (GALAP Galium [8]; 0.008 kg/ha) | Postemergence herbicidal rating GALAP (GALAP Galium [8]; 0.016 kg/ha) | AMBEL herbicidal rating (AMBEL Ragweed, Common [10]; rate 0.016 kg/ha) | AMBEL herbicidal rating (AMBEL Ragweed, Common [10]; rate 0.032 kg/ha) | CASOB herbicidal rating (CASOB Sicklepod [12]; rate 0.016 kg/ha) | CASOB herbicidal rating (CASOB Sicklepod [12]; rate 0.032 kg/ha) | IPOHE herbicidal rating ([13]; rate 0.016 kg/ha) | GALAP herbicidal rating (GALAP Galium [15]; rate 0.016 kg/ha) | GALAP herbicidal rating (GALAP Galium [15]; rate 0.032 kg/ha) | GALAP herbicidal rating (GALAP Galium [15]; rate 0.062 kg/ha) | GALAP herbicidal rating (GALAP Galium [15]; rate 0.125 kg/ha) | ECHCG herbicidal rating (ECHOG Barnyardgrass [16]; rate 0.016 kg/ha) | ECHCG herbicidal rating (ECHOG Barnyardgrass [16]; rate 0.032 kg/ha) | Postemergence herbicidal rating CASOB (CASOB Sicklepod [17]; 0.008 kg/ha) | Postemergence herbicidal rating CASOB (CASOB Sicklepod [17]; 0.016 kg/ha) | Postemergence herbicidal rating CASOB (CASOB Sicklepod [17]; 0.032 kg/ha) | Postemergence herbicidal rating ECHCG (ECHOG Barnyardgrass [18]; 0.008 kg/ha) | Postemergence herbicidal rating ECHCG (ECHOG Barnyardgrass [18]; 0.016 kg/ha) | Postemergence herbicidal rating ECHCG (ECHOG Barnyardgrass [18]; 0.032 kg/ha) | Postemergence herbicidal rating ECHCG (ECHOG Barnyardgrass [18]; 0.062 kg/ha) | GLXMAW herbicidal rating (GLXMAW Soybean, Williams [21]; rate 0.016 kg/ha) | GLXMAW herbicidal rating (GLXMAW Soybean, Williams [21]; rate 0.032 kg/ha) | TRZAWR herbicidal rating ([23]; rate 0.016 kg/ha) | TRZAWR herbicidal rating ([23]; rate 0.032 kg/ha) | TRZAWR herbicidal rating ([23]; rate 0.062 kg/ha) | SETVI herbicidal rating (SETVI Foxtail, Green [24]; rate 0.016 kg/ha)
5.5: IPOHE herbicidal rating ([13]; rate 0.062 kg/ha)
6.0: Postemergence herbicidal rating ABUTH (ABUTH Velvetleaf [9]; 0.008 kg/ha) | ABUTH herbicidal rating (ABUTH Velvetleaf [14]; rate 0.032 kg/ha) | ABUTH herbicidal rating (ABUTH Velvetleaf [14]; rate 0.062 kg/ha)
1.0: AMBEL herbicidal rating (AMBEL Ragweed, Common [10]; rate 0.062 kg/ha) | Postemergence herbicidal rating CASOB (CASOB Sicklepod [17]; 0.062 kg/ha) | Postemergence herbicidal rating ORYSAT (ORYSAT Rice, Tebonnet [22]; 0.016 kg/ha)
6.5: IPOHE herbicidal rating ([13]; rate 0.125 kg/ha) | Postemergence herbicidal rating GLXMAW (GLXMAW Soybean, Williams [19]; 0.062 kg/ha)
4.0: ZEAMX herbicidal rating (ZEAMX Corn, Field [6]; rate 0.125 kg/ha) | Postemergence herbicidal rating ZEAMX (ZEAMX Corn, Field [7]; 0.032 kg/ha) | Postemergence herbicidal rating GALAP (GALAP Galium [8]; 0.032 kg/ha) | Postemergence herbicidal rating GALAP (GALAP Galium [8]; 0.062 kg/ha)
1.5: ORYSAT herbicidal rating (ORYSAT Rice, Tebonnet [4]; rate 0.125 kg/ha) | Postemergence herbicidal rating TRZAWR ([11]; 0.008 kg/ha) | CASOB herbicidal rating (CASOB Sicklepod [12]; rate 0.062 kg/ha) | GLXMAW herbicidal rating (GLXMAW Soybean, Williams [21]; rate 0.125 kg/ha) | Postemergence herbicidal rating ORYSAT (ORYSAT Rice, Tebonnet [22]; 0.032 kg/ha)
3.5: Postemergence herbicidal rating ZEAMX (ZEAMX Corn, Field [7]; 0.016 kg/ha) | AMBEL herbicidal rating (AMBEL Ragweed, Common [10]; rate 0.125 kg/ha) | SETVI herbicidal rating (SETVI Foxtail, Green [24]; rate 0.032 kg/ha)
7.0: Postemergence herbicidal rating SETVI (SETVI Foxtail, Green [5]; 0.062 kg/ha)
2.5: Postemergence herbicidal rating TRZAWR ([11]; 0.016 kg/ha)
3.0: Postemergence herbicidal rating CHEAL ([1]; 0.008 kg/ha) | Postemergence herbicidal rating IPOHE ([3]; 0.016 kg/ha) | Postemergence herbicidal rating SETVI (SETVI Foxtail, Green [5]; 0.032 kg/ha) | Postemergence herbicidal rating ZEAMX (ZEAMX Corn, Field [7]; 0.008 kg/ha) | Postemergence herbicidal rating TRZAWR ([11]; 0.032 kg/ha) | Postemergence herbicidal rating TRZAWR ([11]; 0.062 kg/ha) | ABUTH herbicidal rating (ABUTH Velvetleaf [14]; rate 0.016 kg/ha) | Postemergence herbicidal rating GLXMAW (GLXMAW Soybean, Williams [19]; 0.008 kg/ha)
8.0: Postemergence herbicidal rating ABUTH (ABUTH Velvetleaf [9]; 0.016 kg/ha) | ECHCG herbicidal rating (ECHOG Barnyardgrass [16]; rate 0.125 kg/ha)
5.0: Postemergence herbicidal rating ZEAMX (ZEAMX Corn, Field [7]; 0.062 kg/ha) | Postemergence herbicidal rating GLXMAW (GLXMAW Soybean, Williams [19]; 0.032 kg/ha)
9.0: Postemergence herbicidal rating CHEAL ([1]; 0.016 kg/ha) | Postemergence herbicidal rating CHEAL ([1]; 0.032 kg/ha) | Postemergence herbicidal rating CHEAL ([1]; 0.062 kg/ha) | Postemergence herbicidal rating IPOHE ([3]; 0.032 kg/ha) | Postemergence herbicidal rating IPOHE ([3]; 0.062 kg/ha) | Postemergence herbicidal rating ABUTH (ABUTH Velvetleaf [9]; 0.032 kg/ha) | Postemergence herbicidal rating ABUTH (ABUTH Velvetleaf [9]; 0.062 kg/ha) | ABUTH herbicidal rating (ABUTH Velvetleaf [14]; rate 0.125 kg/ha) | CHEAL herbicidal rating ([20]; rate 0.016 kg/ha) | CHEAL herbicidal rating ([20]; rate 0.032 kg/ha) | CHEAL herbicidal rating ([20]; rate 0.062 kg/ha) | CHEAL herbicidal rating ([20]; rate 0.125 kg/ha) | SETVI herbicidal rating (SETVI Foxtail, Green [24]; rate 0.062 kg/ha) | SETVI herbicidal rating (SETVI Foxtail, Green [24]; rate 0.125 kg/ha)
4.5: IPOHE herbicidal rating ([13]; rate 0.032 kg/ha) | Postemergence herbicidal rating GLXMAW (GLXMAW Soybean, Williams [19]; 0.016 kg/ha)
0.5: Postemergence herbicidal rating ORYSAT (ORYSAT Rice, Tebonnet [22]; 0.008 kg/ha)
2.0: Postemergence herbicidal rating AMBEL (AMBEL Ragweed, Common [2]; 0.032 kg/ha) | Postemergence herbicidal rating AMBEL (AMBEL Ragweed, Common [2]; 0.062 kg/ha) | Postemergence herbicidal rating IPOHE ([3]; 0.008 kg/ha) | ZEAMX herbicidal rating (ZEAMX Corn, Field [6]; rate 0.062 kg/ha) | CASOB herbicidal rating (CASOB Sicklepod [12]; rate 0.125 kg/ha) | ECHCG herbicidal rating (ECHOG Barnyardgrass [16]; rate 0.062 kg/ha) | GLXMAW herbicidal rating (GLXMAW Soybean, Williams [21]; rate 0.062 kg/ha) | Postemergence herbicidal rating ORYSAT (ORYSAT Rice, Tebonnet [22]; 0.062 kg/ha) | TRZAWR herbicidal rating ([23]; rate 0.125 kg/ha)

From patent US20020111274A1, “1-alkyl-3-[1-(substituted phenyl) benzotriazol-6-yl] uracils” (BASF Aktiengesellschaft, priority 2000, published 2002)
